Results: patent publication US11247972B2, “Compositions and methods for treating toxoplasmosis, cryptosporidiosis, and other apicomplexan protozoan related diseases” (University of Washington through its Center for …, priority 2010, dated 2022)
“Also recorded” adds a separate entry of the source.

Legend:
PfCDPK1 = PfCDPK1 (Plasmodium falciparum (isolate 3D7), UniProt P62344); assay: biochemical; settings: read-out: PfCDPK1 (% inhibition @ 3 uM)
CpCDPK1 = CpCDPK1 (Cryptosporidium parvum (strain Iowa II), UniProt A3FQ16); type: biochemical
PfCDPK4 = PfCDPK4 (Plasmodium falciparum (isolate 3D7), UniProt Q8IBS5); assay: biochemical; settings: read-out: PfCDPK4 (% inhibition @ 3 uM)
TgCDPK1 = TgCDPK1 (Toxoplasma gondii, UniProt Q9BJF5); type: biochemical
[1] = tested on: P. berghei expressing PfCDPK4-2x-myc; set-up: species or system Plasmodium berghei; settings: in vivo
C. parvum = assay: Immunosuppressed (SCID-beige) mouse C. parvum model, stool qRT-PCR; type: in vivo, Cryptosporidium parvum; settings: oral gavage once a day, days 3-7 and 10-14; 29 and 150 50 mg/kg/day, Paromomycin 2 g/kg/day
Method: Shown are mean of the parasite numbers detected in 25 mg of stool from each mouse, by qRT-PCR.

P. berghei = tested on: P. berghei; set-up: species or system Plasmodium berghei; settings: in vivo
P. falciparum = P. falciparum NF54 gametocyte exflagellation with compound in blood; type: cell-based, Plasmodium falciparum

CpCDPK1, sequence (A3FQ16 1-538): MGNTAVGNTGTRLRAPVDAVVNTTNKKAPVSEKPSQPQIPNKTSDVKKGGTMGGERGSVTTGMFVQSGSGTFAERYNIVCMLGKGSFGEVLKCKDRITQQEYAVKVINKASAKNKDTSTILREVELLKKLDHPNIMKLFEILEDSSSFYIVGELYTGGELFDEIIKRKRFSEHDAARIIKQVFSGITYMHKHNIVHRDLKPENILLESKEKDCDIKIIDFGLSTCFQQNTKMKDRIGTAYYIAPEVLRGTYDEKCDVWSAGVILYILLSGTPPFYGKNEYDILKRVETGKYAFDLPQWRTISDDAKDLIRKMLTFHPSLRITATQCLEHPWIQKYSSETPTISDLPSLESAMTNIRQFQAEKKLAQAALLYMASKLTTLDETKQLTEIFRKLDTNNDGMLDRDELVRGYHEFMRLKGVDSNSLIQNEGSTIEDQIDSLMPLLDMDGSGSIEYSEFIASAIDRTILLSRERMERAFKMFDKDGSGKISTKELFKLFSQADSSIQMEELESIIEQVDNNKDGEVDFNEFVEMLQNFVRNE
TgCDPK1, sequence (Q9BJF5 1-507): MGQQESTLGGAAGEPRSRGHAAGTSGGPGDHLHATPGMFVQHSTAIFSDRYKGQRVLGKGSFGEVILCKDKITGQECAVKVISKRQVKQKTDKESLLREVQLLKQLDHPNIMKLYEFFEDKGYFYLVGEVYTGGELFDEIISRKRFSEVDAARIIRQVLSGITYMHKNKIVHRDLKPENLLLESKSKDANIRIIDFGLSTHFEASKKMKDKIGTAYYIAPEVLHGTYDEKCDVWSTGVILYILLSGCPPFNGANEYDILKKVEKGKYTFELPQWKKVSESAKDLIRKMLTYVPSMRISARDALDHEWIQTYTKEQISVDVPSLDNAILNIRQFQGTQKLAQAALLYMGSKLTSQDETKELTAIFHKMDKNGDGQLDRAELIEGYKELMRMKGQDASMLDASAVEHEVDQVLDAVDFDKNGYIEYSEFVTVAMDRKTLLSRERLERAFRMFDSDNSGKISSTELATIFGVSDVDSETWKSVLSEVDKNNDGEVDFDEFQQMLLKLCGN

SMILES	inhibition at 3 µM (PfCDPK1)	inhibition of CpCDPK1 (in words) (CpCDPK1)	inhibition at 3 µM (PfCDPK4)	parasites in stool at the end of treatment (C. parvum)	rebound of parasite burden after treatment (C. parvum)	other results
CC(C)n1nc(-c2ccc(Cl)c(Cl)c2)c2c(N)ncnc21 [Compound 7c, 3-(3,4-dichlorophenyl)-1-isopropyl-1H-pyrazolo[3,4-d]pyrimidin-4-amine]	93%	potent against both enzymes	97%	–	–	–
Cc1cc(-c2nn(C(C)C)c3ncnc(N)c23)ccc1F [Compound 7i, 3-(4-fluoro-3-methylphenyl)-1-isopropyl-1H-pyrazolo[3,4-d]pyrimidin-4-amine]	79%	potent against both enzymes	79%	–	–	–
COc1ccc(-c2nn(C(C)C)c3ncnc(N)c23)cc1OC [Compound 7k, 3-(3,4-dimethoxyphenyl)-1-isopropyl-1H-pyrazolo[3,4-d]pyrimidin-4-amine]	93%	potent against both enzymes	43%	–	–	–
COc1ccc(-c2nn(C(C)C)c3ncnc(N)c23)cc1C [Compound 7m, 1-isopropyl-3-(4-methoxy-3-methylphenyl)-1H-pyrazolo[3,4-d]pyrimidin-4-amine]	77%	potent against both enzymes	85%	–	–	–
CC(C)n1nc(-c2cnc3ccccc3c2)c2c(N)ncnc21 [Compound 7t, 1-isopropyl-3-(quinolin-3-yl)-1H-pyrazolo[3,4-d]pyrimidin-4-amine]	65%	potent inhibitors of both enzymes	83%	–	–	inhibition of TgCDPK1 (in words) (TgCDPK1): potent inhibitors of both enzymes
CCOc1ccc2cc(-c3nn(CC4CCNCC4)c4ncnc(N)c34)ccc2c1 [Compound 29, 3-(6-ethoxynaphthalen-2-yl)-1-(piperidin-4-ylmethyl)-1H-pyrazolo[3,4-d]pyrimidin-4-amine]	97%	–	–	not detected	slowly	duration of complete suppression of male gametocyte differentiation to exflagellating units [1]: 14 h; exflagellation in blood samples from treated mice [1]: some exflagellation was observed; formation of oocysts in A. stephensi (P. berghei): completely blocked; P. falciparum exflagellation (P. falciparum; 1 and 3 μM): complete suppression; also recorded: suppressed completely; also recorded: prevented the exflagellation of microgametes
CCOc1ccc2cc(-c3nn(CC4CCN(C)CC4)c4ncnc(N)c34)ccc2c1 [Compound 150, 3-(6-ethoxynaphthalen-2-yl)-1-((1-methylpiperidin-4-yl)methyl)-1H-pyrazolo[3,4-d]pyrimidin-4-amine]	–	–	–	not detected	not	EC50 (P. falciparum; Plasmodium falciparum, read-out: Parasite Proliferation Assay EC50 P. falciparum Exflaggelation): 50 nM
CC(C)(C)n1nc(-c2ccc3ccccc3c2)c2c(N)ncnc21 [NA-PP2, reference compound]	–	–	–	–	–	formation of oocysts in A. stephensi (P. berghei): hundreds of oocysts per mosquito
NC[C@@H]1O[C@H](O[C@H]2[C@@H](O)[C@H](O[C@@H]3[C@@H](O)[C@H](N)C[C@H](N)[C@H]3O[C@H]3O[C@H](CO)[C@@H](O)[C@H](O)[C@H]3N)O[C@@H]2CO)[C@H](N)[C@@H](O)[C@@H]1O [Paromomycin, reference compound]	–	–	–	not detected	quickly rebounded	–
